Test results taken from ChEMBL document CHEMBL1773003.
pIC50, pKd: −log10 of the molar value. Activity calls are given as the source filed them. The calls are words filed in the database; no cut-off is given here.

Columns and labels:
Influenza A virus [1] = assay: Antiviral activity against Influenza A virus (A/Udorn/72) expressing wild-type matrix protein 2 infected in MDCK cells assessed as inhibition of plaque formation at 5 uM measured after 2 days; type: functional, organism-based; settings: Influenza A virus (A/udorn/1972(H3N2))
Matrix protein 2 = Matrix protein 2 (Influenza A virus, UniProt P06821); type: cell-based, Influenza A virus (A/udorn/1972(H3N2)), Oocyte
[2] = target: Matrix protein 2 (Influenza A virus) (UniProt P06821); type: cell-based; settings: Influenza A virus (A/udorn/1972(H3N2)); Oocyte; 100 uM
MDCK = assay: Cytotoxicity against MDCK cells after 72 hrs by MTS assay; type: cell-based, Canis lupus familiaris; settings: dog
[3] = Binding affinity to Influenza A virus (A/Udorn/72) transmembrane domain of matrix protein 2 (22 to 46) at pH 7.4 by circular dichroism analysis; set-up: species or system Influenza A virus (A/udorn/1972(H3N2))
Influenza A virus [4] = assay: Inhibition of Influenza A virus matrix protein 2; settings: concentration not given here

Matrix protein 2 (Influenza A virus), sequence (P06821 whole entry): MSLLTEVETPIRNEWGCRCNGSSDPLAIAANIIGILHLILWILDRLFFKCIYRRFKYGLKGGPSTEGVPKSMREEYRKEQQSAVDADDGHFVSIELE
Matrix protein 2, sequence (P06821 whole entry): as above

Compound | Activity (Influenza A virus [1]) | pIC50 (Matrix protein 2) | inhibition [2] [%] | CC50 (MDCK) [µM] | pKd [3] | inhibition (Influenza A virus [4]) [%]
NCC12CC3CC(CC1C3)C2 | Active | 5.15 | 97.1 | 357 | – | –
CC12CC3CC1(C)CC3(N)C2 | Active | – | 93.6 | > 500 | – | –
NC12CC3CC(CC(C3)O1)C2 | – | 4.53 | 88.2 | > 500 | 4.04 | –
CC12CC3CC1(C)CC3(CN)C2 | Active | 5.14 | 97.3 | 79 | – | –
NC12CC3CC(CC(C3)C1)C2 [AMANTADINE] | Active | – | 91 | – | – | 85
NCC12C3CCC4C3C3C(CCC31)C42 | – | – | 12.8 | 12 | – | –
CNC12CC3CC(CC(C3)O1)C2 | – | 4.64 | 91.7 | > 500 | – | –
NC12C3CCC4C3C3C(CCC31)C42 | – | – | 4.8 | > 500 | – | –
N=C(N)NCC12CC3CC(CC1C3)C2 | Active | – | 97.2 | – | – | –
CNCC12C3CCC4C3C3C(CCC31)C42 | – | – | 14.7 | 224 | – | –
CC(=N)NC12C3CCC4C3C3C(CCC31)C42 | – | – | 9.3 | > 500 | – | –
C1C2C1C1C3C4C5C6CC6C4C14CNCC54C23 (stereo unspecified) | Active | – | 86.5 | 61 | 3.64 | –
NC(N)=NCC12CC3CC(CC1C3)C2 | – | 5.62 | – | 10.5 | – | –
C1=CC2C3C4C5C=CC4C24CNCC54C13 | – | 4.47 | – | > 500 | 4.13 | –
CNCC12CC3CC(CC1C3)C2 | Active | 4.77 | 92.2 | < 19.4 | – | –
CC(N)C12CC3CC(CC1C3)C2 (racemic) | Active | 4.90 | 93.2 | 256 | – | –
C1CC2C3C4C5CCC4C24CNCC54C13 | – | – | 39.7 | – | – | –
CCN(CC)C12C3CCC4C3C3C(CCC31)C42 | – | – | 0 | 119 | – | –
